Results published in patent publication US20210371413A1, “POLYCYCLIC AMIDES AS CYTOTOXIC AGENTS” (FEMTOGENIX LIMITED, priority 2018, published 2021).
Values after ≈ are worked out from the molar mass of the structure shown.

Key:
Type in all cases: cell-based
[1] = tested on: transcription factors in HeLa cells; assay: Transcription factor plate array assay; conditions: 100 nM, 6 hours
Experimental: The consensus sequences of each of these transcription factors corresponds to the DNA footprinting pattern observed for 16.
The transcription factor plate array assay kit was obtained from Signosis Inc (USA). Briefly, 2×10^6 HeLa cells were treated with 100 nM compound 16 and incubated for 6 hours before extracting the nuclear protein and carrying out the TF plate array assay. The assay was carried out following the manufacturer's protocol. In the case of each transcription factor, the RLU value obtained for the cells treated with 16 was deducted from the respective values obtained for the untreated cells to obtain the differences in TF activation/inhibition.

EMRSA 16 = assay: MIC assay, EMRSA 16; conditions: Staphylococcus aureus
Experimental: (§1) The antimicrobial activity of a selection of compounds were evaluated in a Gram-negative, Gram-positive and multi-resistant bacteria using the standard minimum inhibitory concentration (MIC) assay for an overnight (16-20 hour) incubation period. Commercially marketed antibiotics (Table 3) were used as positive controls during the study.
(§2) Mueller-Hinton broth (MH Broth) (Sigma-Aldrich; Millipore, cat. no. 70192) and Mueller-Hinton agar (MHA) (Sigma-Aldrich; Millipore, cat. no. 70191) were prepared as per manufacturer's instructions and sterilized by autoclaving. Approximately 20 mL of MHA was poured onto 15×100 mm petri dishes and allowed to set. Agar plates were then stored in plastic bags in an inverted position at 4° C.
(§3) Bacterial strains were provided in the form of a glycerol stock, stored at −80° C. For the purpose of preparation of bacterial suspension, appropriate strains were removed from −80° C. storage onto dry ice and not allowed to freeze-thaw.
(§4) Stock solutions of 16, 45 and 73 were provided in DMSO at 1.28 mg/mL concentration. From this stock solution, working solutions of the desired concentration were prepared by diluting with MHB.
(§5) MIC assay methodology was adapted from previously published work.
(§6) Bacterial isolate to be tested was streaked onto a nutrient-rich MH agar plate and incubated overnight at 37° C. in order to obtain single colonies.
(§7) After overnight incubation, single colonies with the same morphological appearance were chosen from the agar plate. These were touched using a sterile loop and transferred into a tube containing 10 mL of a MH broth. They were then mixed using vortex mixer and incubated at 35-37° C. in a shaker at 200 r.p.m. overnight.
(§8) Determination of OD600 and cfu/mL count OD600 (the optical density of a sample measured at a wavelength of 600 nm) of the overnight culture was measured. Because of the loss of linearity at OD600 values […], it was necessary to dilute the sample until the OD600 value was below 1.0. For all tested bacteria, a dilution of 1:10 was appropriate (100 μL in 900 μL broth).
(§9) The overnight culture was then diluted 1:100 using sterile tubes and MH broth (dilution: 10^−2). Serial dilution was then performed six times until dilution of 10^−8 was reached. 100 μL of dilutions 10^−7 and 10^−8 were plated onto MH agar plates in triplicate using a sterile cell spreader and incubated overnight at 37° C.
(§10) After overnight incubation, colonies on plates were counted and cfu per mL calculated. The following formula was applied: […]
After overnight incubation, the OD600 was measured and the overnight culture was diluted accordingly to obtain 1×10^8 cfu/mL. […]
(§11) The 96-well plates were read using a SpectraMax plate reader at an absorbance of 600 nm. […]

SW620 = assay: In vitro cell-killing, MTT assay, SW620; conditions: Homo sapiens, SW-620, 72 h, read-out: In vitro cell-killing (IC50), Cytotoxicity (72 hours)
Experimental: Tumor cell lines were maintained in RPMI1640 medium supplemented with 10% heat-inactivated fetal bovine serum, 2 mM L-glutamine and 1 mM sodium pyruvate. 1800 cells per well were seeded in a volume of 180 μl in a 96-well flat bottom polystyrene plate. The cells were allowed to adhere overnight at 37° C. in a CO2 incubator. Ligands were initially formulated in DMSO, and stocks stored at −80° C. They were then further formulated at lox concentration in RPMI1640 medium. 20 ul of diluted samples were added into each treatment well. On each plate, blank wells with no cells, and untreated wells containing cells, were included. Plates were then cultured at 37° C. in a CO2 incubator for 72 hrs. Cytotoxicity was evaluated using a tetrazolium salt-based assay, the MTT assay. After 72 hours, the supernatant was removed from each well and 200 μl of a sterile filtered 500 μg/ml MTT solution in water added to each well. […] The plate was then read on a plate reader at 540 nm, and percentage cell survival calculated as follows: ((mean absorbance treated wells at concentration x−mean absorbance blank wells)+(mean absorbance untreated wells at concentration x−mean absorbance blank wells))×100. Data were plotted as concentration in nM vs. % cell survival in Microsoft Excel, and IC50 values (concentration where cell survival is reduced by a half) were determined from the graph.

U138-MG (Glioblastoma) = assay: In vitro cytotoxicity, MTT assay, U138-MG; conditions: Homo sapiens, U138-MG, 72 h, read-out: Cytotoxicity
Experimental: The in vitro cytotoxicity of a selection of compounds were evaluated in a panel of cell lines using the standard MTT assay for a 72 hour incubation period (Table 2). Free payloads produced cytotoxicities in the nanomolar range.
Tumor cell lines were maintained in RPMI1640 medium supplemented with 10% heat-inactivated fetal bovine serum, 2 mM L-glutamine and 1 mM sodium pyruvate. 1800 cells per well were seeded in a volume of 180 μl in a 96-well flat bottom polystyrene plate. The cells were allowed to adhere overnight at 37° C. in a CO2 incubator. Ligands were initially formulated in DMSO, and stocks stored at −80° C. They were then further formulated at lox concentration in RPMI1640 medium. 20 ul of diluted samples were added into each treatment well. On each plate, blank wells with no cells, and untreated wells containing cells, were included. Plates were then cultured at 37° C. in a CO2 incubator for 72 hrs. Cytotoxicity was evaluated using a tetrazolium salt-based assay, the MTT assay. After 72 hours, the supernatant was removed from each well and 200 μl of a sterile filtered 500 μg/ml MTT solution in water added to each well. The plates were then incubated at 37° C. in a CO2 incubator for 4 hrs. The supernatant was then removed and the formazan crystals formed solubilized by adding 150 μl of DMSO to each well. The plate was then read on a plate reader at 540 nm, and percentage cell survival calculated as follows: ((mean absorbance treated wells at concentration x−mean absorbance blank wells)+(mean absorbance untreated wells at concentration x−mean absorbance blank wells))×100. Data were plotted as concentration in nM vs. % cell survival in Microsoft Excel, and IC50 values (concentration where cell survival is reduced by a half) were determined from the graph.

E. coli K12 = assay: MIC assay, E. coli K12; conditions: overnight (16-20 hour) incubation
Experimental: as §1, §2, §3, §4, §5, §6, §7, §8, §9, §10
For the generation of overnight cultures to be used for preparation of the bacterial suspension for MIC tests, a single colony of bacteria was selected using a sterile loop and a sterile tube with MH broth was inoculated followed by overnight incubation at […] in a shaker set to 200 r.p.m.
After overnight incubation, the OD600 was measured and the overnight culture was diluted accordingly to obtain 1×10^8 cfu/mL.
Free payload dilutions were prepared as per Table 4.
96-well sterile microtiter plates were used for MIC assay. The plate was filled with the respective free payload or positive control antibiotic concentrations in triplicate. 100 μL of broth was pipetted in the sterility control well (SC, column 12) and 50 μL in the growth control well (GC, column 11).
1×10^8 cfu/mL bacterial suspension was diluted 1:100 and 50 μL added to each well apart from SC. […]
as §11

## COc1cc2c(cc1OCCCC(=O)Nc1cc(C(=O)Nc3ccc(-c4cc(C(=O)Nc5ccc(N)cc5)n(C)c4)cc3)n(C)c1)NC[C@@H]1CCCCN1C2=O [Compound 16, (S)—N-(4-Aminophenyl)-4-(4-(4-(4-((2-methoxy-12-oxo-5,6,6a,7,8,9,10,12-octahydrobenzo[e]pyrido[1,2-a][1,4]diazepin-3-yl)oxy)butanamido)-1-methyl-1H-pyrrole-2-carboxamido)phenyl)-1-methyl-1H-pyrrole-2-carboxamide]
[1]
  major transcription factors down-regulated: GR/PR, CDP, ATG2 and Oct-4
EMRSA 16
  MIC: 0.25 to 0.5 mg/L (≈ 0.329 to 0.659 µM)
SW620
  IC50: 0.079 µM
U138-MG (Glioblastoma)
  IC50: 0.184 µM
E. coli K12; E. coli K12 (Gram-negative)
  MIC: 2 to 4 mg/L
E. coli K12; Escherichia coli, K12, E. coli K12 (Gram-negative)
  MIC: 2 mg/L (≈ 2.64 µM)
